Experimental data published in ChEMBL document CHEMBL4340576, “Synthesis of oxadiazole-coupled-thiadiazole derivatives as a potent β-glucuronidase inhibitors and their molecular docking study” (Bioorg Med Chem, 2019).

molecular target: T1, Beta-glucuronidase (Homo sapiens, UniProt P08236)
T1 sequence (P08236 whole entry): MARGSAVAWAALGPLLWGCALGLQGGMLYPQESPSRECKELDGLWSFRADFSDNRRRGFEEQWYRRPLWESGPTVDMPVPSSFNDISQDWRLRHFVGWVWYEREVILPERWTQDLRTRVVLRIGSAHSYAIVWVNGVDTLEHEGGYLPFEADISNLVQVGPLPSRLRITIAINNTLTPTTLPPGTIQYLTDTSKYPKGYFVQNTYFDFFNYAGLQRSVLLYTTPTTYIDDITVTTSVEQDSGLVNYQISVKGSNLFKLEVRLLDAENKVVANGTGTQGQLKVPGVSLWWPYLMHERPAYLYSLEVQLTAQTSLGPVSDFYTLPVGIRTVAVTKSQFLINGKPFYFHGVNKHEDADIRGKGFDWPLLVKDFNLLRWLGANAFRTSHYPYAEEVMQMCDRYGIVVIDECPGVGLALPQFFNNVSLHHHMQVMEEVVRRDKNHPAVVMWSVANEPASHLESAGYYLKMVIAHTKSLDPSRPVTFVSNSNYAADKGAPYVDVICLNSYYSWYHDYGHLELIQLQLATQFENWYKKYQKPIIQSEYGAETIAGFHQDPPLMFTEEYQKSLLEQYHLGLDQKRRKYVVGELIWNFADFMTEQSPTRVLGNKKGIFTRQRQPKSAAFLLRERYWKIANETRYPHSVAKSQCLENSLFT
Description: Inhibition of human beta-glucuronidase pre-incubated for 30 mins before p-nitrophenyl-beta-D-glucuronide substrate addition by spectrophotometry

IC50	SMILES
Not Active	COc1cc(O)ccc1-c1nnc(-c2ccc(-c3nnc(-c4cccc(C)c4)s3)cc2)o1
Not Active	COc1cc(O)ccc1-c1nnc(-c2ccc(-c3nnc(-c4cccc([N+](=O)[O-])c4)s3)cc2)o1
Not Active	COc1cc(O)ccc1-c1nnc(-c2ccc(-c3nnc(-c4cccnc4)s3)cc2)o1
Not Active	COc1cc(O)ccc1-c1nnc(-c2ccc(-c3nnc(-c4ccncc4)s3)cc2)o1
